Where no end group is shown, it is not given here.
Key:
[1] = Cytotoxicity in normal cell line (MTT); format: cell-based; settings: human, HaCaT keratinocytes, read-out: Cell survival ability; for viability at 24 h, 6.25 µM: peptide concentration 6.25 μM; for viability at 24 h, 12.5 µM: peptide concentration 12.5 μM; for viability at 24 h, 25 µM: peptide concentration 25 μM; for viability at 24 h, 50 µM: peptide concentration 50 μM; for viability at 24 h, 100 µM: peptide concentration 100 μM; for viability at 24 h, 200 µM: peptide concentration 200 μM, HaCaT
Description: To determine the cytotoxicity of the peptide produced by the method of Example 1 in normal cell line, toxicity was measured by using human keratinocytes (HaCaT cell line, Dr. N E. Fusenig, Heidelberg, Germany).
Specifically, HaCaT cells which have been cultured in DMEM medium containing 10% FBS (Fetal Bovine Serum) were aliquoted in a 96-well plate to have 2×10^5 cells per well. After culturing them for 24 hours, the cells were subjected to a treatment with Hp1404, Hp1404-T1, Hp1404-T1a, Hp1404-T1b, Hp1404-T1c, Hp1404-T1d, or Hp1404-T1e, each at concentration of 6.25, 12.5, 25.0, 50.0, 100.0 or 200.0 μM/well, followed by reaction for 24 hours in a 5% CO2 incubator. After 24 hours, a reaction solution containing 0.5 mg/ml MTT (Thiazolyl Blue Tetrazolium Bromide) dissolved in physiological saline (PBS) was added in an amount of 100 μl to each well and the reaction was allowed to occur for 4 hours. After that, the supernatant was removed, and, by dissolving MTT crystals that are formed by adding 200 μl of DMSO (dimethyl sulfoxide), the absorbance at 560 nm was measured to determine the cell survival ability.

L. monocytogenes = test: MIC, L. monocytogenes; format: cell-based, Listeria monocytogenes; settings: L. monocytogenes (KCTC 3710), 18 hours at 37° C.
Excerpt: (§1) To compare the antimicrobial activity among the peptides produced by the method of Example 1, the inventors of the present invention measured the minimal growth inhibitory concentration (MIC), which is minimum concentration of the peptide showing no dissociation of bacterial cells.
(§2) Specifically, the bacterial strain described in the following Table 2 was purchased and cultured to a mid-log phase in each medium with a composition suitable for each strain. Then, after dilution to bacterial cell concentration of 2×10^4 cells/100 μl, the cells were inoculated to a microtiter plate (NUNC, USA). Thereafter, Hp1404-T1, Hp1404-T1a, Hp1404-T1b, Hp1404-T1c, Hp1404-T1d or Hp1404-T1e peptide which has been synthesized in Example 1 above was subjected to serial dilution, ½ times for each, with BSA (bovine serum albumin) solution in a 96-well plate. After adding the cells to a plate, the cells were cultured for 18 hours at 37° C. By using a microtiter plate reader (Merck Elisa reader, Germany), the absorbance was measured at a wavelength of 600 nm to determine the MIC value of each bacterial strain. As a control group, Hp1404 as a mother peptide was used.

S. aureus = test: MIC, S. aureus; format: cell-based, Staphylococcus aureus; settings: S. aureus (ATCC 25923), 18 hours at 37° C.
Excerpt: as §1, §2

[2] = test system: erythrocytes of a mouse (Balb/c); test: Hemolytic activity; format: cell-based
Description: To compare the cytotoxicity among the peptides that are produced by the method of Example 1, erythrocyte hemolytic activity of the synthesized peptide was measured.
Specifically, erythrocytes of a mouse (Balb/c, 6 week old, female) were diluted in physiological saline (PBS, pH 7.0) to have concentration of 8%, and then subjected to a treatment with Hp1404, Hp1404-T1, Hp1404-T1a, Hp1404-T1b, Hp1404-T1c, Hp1404-T1d or Hp1404-T1e, each at concentration of 6.25, 12.5, 25.0, 50.0, 100.0 and 200.0 μM/well, respectively, followed by a reaction for 1 hour at 37° C. After that, the amount of hemoglobin contained in a supernatant collected by centrifuge at 1,000×g was determined by measuring the absorbance at a wavelength of 414 nm. As a control group to be used as a reference for cell disruption level, the supernatant collected by a treatment with 1% Triton X-100 (Sigma, USA) and a reaction for 1 hour at 37° C. was used to measure the absorbance. By setting the resulting absorbance value at 100%, the hemolytic activity of each peptide was calculated using the following mathematical formula 1. Erythrocyte disrupting ability (hemolysis) (%)=(Absorbance A−Absorbance B)/(Absorbance C−Absorbance B)×100 [Mathematical formula 1] (in the above formula, Absorbance A indicates the absorbance of a reaction solution treated with each peptide, in which the absorbance is measured at a wavelength of 414 nm; Absorbance B indicates the absorbance of a reaction solution treated with PBS, in which the absorbance is measured at a wavelength of 414 nm; and Absorbance C indicates the absorbance of a reaction solution treated with 1% Triton X-100, in which the absorbance is measured at a wavelength of 414 nm).

E. coli = test: MIC, E. coli; format: cell-based, Escherichia coli; settings: E. coli (ATCC 25922), 18 hours at 37° C.
Excerpt: as §1, §2

[3] = test system: S. aureus or P. aeruginosa membrane; test: Flow cytometry with propidium iodide; format: cell-based; settings: 2×MIC, 1 hour at 37° C.
Description: Specifically, S. aureus or P. aeruginosa was treated for 1 hour at 37° C. with the mother peptide Hp1404, or Hp1404-T1c, Hp1404-T1d or Hp1404-T1e peptide (at concentration of 2×MIC). After that, the supernatant was removed by centrifuge (10,000 rpm) and stained with propidium iodide (PI, concentration of 10 μg/ml) for 30 minutes at 4° C. Thereafter, unbound propidium iodide was removed by centrifuge, and the problem of cell aggregation phenomenon was solved by adding physiological saline (PBS) in an amount of 1 ml.

[4] = test system: lipopolysaccharide (LPS) isolated from P. aeruginosa; test: Binding ability between lipopolysaccharide (LPS) and peptide; settings: peptide at 1×MIC
Description: By using the peptides prepared by the method of Example 1, binding to lipopolysaccharide (LPS), which is a constitutional component of a cell wall of Gram-negative bacteria, was examined. LPS used in the present invention was isolated from P. aeruginosa. Lipopolysacchride (0 to 100 μg/ml) was diluted with 10 mM sodium phosphate buffer (pH 7.2), reacted with each peptide at a concentration of 1× or 2×MIC, and then cultured with the bacteria at 2×10^5 CFU/ml. By measuring the absorbance at 600 nm, the binding ability to the peptide was determined. Additionally, after reacting 0.1% […] with the peptide (40 μM) in an incubator, the secondary structure was examined by circular dichroism (CD) spectroscopy.

[5] = Stability against trypsin enzyme (RP-HPLC); format: in vitro ADME; settings: 20 nM trypsin, 37° C., read-out: amount of remaining peptide
Description: To determine whether or not the peptides prepared by the method of Example 1 have stability against an enzyme, RP-HPLC (reverse-phase HPLC) was carried out. Specifically, 20 μg of the peptide was reacted with 100 μl of trypsin at concentration of 20 nM for 1 to 2 hours at 37° C. After the reaction, 20 μl of the reaction product was applied to RP-HPLC, and the amount of remaining peptide was examined.

plasmid DNA (pRSETB) = test: Binding between antimicrobial peptide and DNA (gel electrophoresis); settings: peptide/DNA ratio 0.25:1 to 4:1, 10 minutes at 37° C.
Description: To figure out the working mechanism of the synthetic peptides of the present invention for showing the antimicrobial activity, electrophoresis was carried out to examine the possible binding of synthetic peptides, i.e., Hp1404, […], Hp1404-T1d and Hp1404-T1e, to DNA as an internal material of bacteria.
Specifically, after reacting the plasmid DNA (pRSETB, 260 ng) with the peptide at different ratio (i.e., peptide/DNA ratio is as follows for lane number 1 to lane number 8: DNA only, 0.25:1, 0.5:1, 1:1, 1.5:1, 2:1, 3:1, and 4:1. respectively) for 10 minutes at 37° C., they were subjected to electrophoresis using 1% agarose gel followed by ethidium bromide (EtBr) staining and UV visualization.

[6] = test system: Pseudomonas aeruginosa strain 1034; test: In vivo antimicrobial activity, infected skin wound; design: species or system BALB/c mouse
Description: By using Hp1404-T1e found to have the most excellent antimicrobial activity among the peptides that are prepared by the method of Example 1, in vivo antimicrobial activity was measured. Specifically, among the Pseudomonas aeruginosa strains, strain 1034 was selected and tested. The strain was prepared by washing 3 times with PBS buffer. Ciprofloxacin antibiotic was used as a control group. A BALB/c mouse (6 week old) was shaved clean and a wound with pre-determined size was created thereon. Then, the wound site was injected intracutaneously with Pseudomonas aeruginosa strain 1034 ([…], 2×10^5 CFU/ml). After the bacterial infection, the peptide and antibiotic, each prepared at a concentration of 0.1 mg/ml and 0.2 mg/ml, respectively, were intracutaneously injected, and the observation was made everyday. On each day, the skin tissues were sampled and smeared on an NB solid medium. The smeared medium was incubated in an incubator for 18 hours, and the number of grown colonies was counted and expressed in %.

For ILGKLWEGVKSI-NH2 [Hp1404-T1], the viability at 24 h, 6.25 µM [1] was 100%, the viability at 24 h, 12.5 µM [1] was 100% and the viability at 24 h, 25 µM [1] was 100%. For the same molecule, the viability at 24 h, 50 µM [1] was 100%, the viability at 24 h, 100 µM [1] was 100% and the viability at 24 h, 200 µM [1] was 100%. It also gave a Minimal inhibitory concentration (L. monocytogenes) greater than 25 µM, a Minimal inhibitory concentration (S. aureus) greater than 25 µM and an Erythrocyte disrupting ability ([2]; peptide concentration 6.25 μM) of 0%. The Erythrocyte disrupting ability ([2]; peptide concentration 12.5 μM) was 0%, the Erythrocyte disrupting ability ([2]; peptide concentration 25 μM) was 0% and the Erythrocyte disrupting ability ([2]; peptide concentration 50 μM) was 0%. The Erythrocyte disrupting ability ([2]; peptide concentration 100 μM) was 0% and the Minimal inhibitory concentration (E. coli) was greater than 25 µM.
For ILKKLLEGVKSI-NH2 [Hp1404-T1b], the viability at 24 h, 6.25 µM [1] was 100%, the viability at 24 h, 12.5 µM [1] was 100% and the viability at 24 h, 25 µM [1] was 100%. The viability at 24 h, 50 µM [1] was 100%, the viability at 24 h, 100 µM [1] was 80.9% and the viability at 24 h, 200 µM [1] was 31.9%. For the same molecule, the Minimal inhibitory concentration (L. monocytogenes) was greater than 25 µM, the Minimal inhibitory concentration (S. aureus) was greater than 25 µM and the Erythrocyte disrupting ability ([2]; peptide concentration 6.25 μM) was 0.07%. It also gave an Erythrocyte disrupting ability ([2]; peptide concentration 12.5 μM) of 0.19%, an Erythrocyte disrupting ability ([2]; peptide concentration 25 μM) of 0% and an Erythrocyte disrupting ability ([2]; peptide concentration 50 μM) of 0%. It also gave an Erythrocyte disrupting ability ([2]; peptide concentration 100 μM) of 0% and a Minimal inhibitory concentration (E. coli) greater than 25 µM.
For ILKKLWEGVKSI-NH2 [Hp1404-T1a], the viability at 24 h, 6.25 µM [1] was 100%, the viability at 24 h, 12.5 µM [1] was 100% and the viability at 24 h, 25 µM [1] was 100%. It also gave a viability at 24 h, 50 µM [1] of 100%, a viability at 24 h, 100 µM [1] of 100% and a viability at 24 h, 200 µM [1] of 30.7%. It also gave an Erythrocyte disrupting ability ([2]; peptide concentration 6.25 μM) of 0%, an Erythrocyte disrupting ability ([2]; peptide concentration 12.5 μM) of 0% and an Erythrocyte disrupting ability ([2]; peptide concentration 25 μM) of 0%. The Erythrocyte disrupting ability ([2]; peptide concentration 50 μM) was 0% and the Erythrocyte disrupting ability ([2]; peptide concentration 100 μM) was 0%.
Work on ILKKLLKGVKSI-NH2 [Hp1404-T1c] yielded a viability at 24 h, 6.25 µM [1] of 100%, a viability at 24 h, 12.5 µM [1] of 100% and a viability at 24 h, 25 µM [1] of 100%. The viability at 24 h, 50 µM [1] was 51.3%, the viability at 24 h, 100 µM [1] was 48.6% and the “propidium iodide fluorescence signal shift (membrane damage)” value [3] was “no such shift of fluorescence signal”. The Erythrocyte disrupting ability ([2]; peptide concentration 6.25 μM) was 0%, the Erythrocyte disrupting ability ([2]; peptide concentration 12.5 μM) was 0% and the Erythrocyte disrupting ability ([2]; peptide concentration 25 μM) was 0%. For the same molecule, the Erythrocyte disrupting ability ([2]; peptide concentration 50 μM) was 0%, the Erythrocyte disrupting ability ([2]; peptide concentration 100 μM) was 0% and the “binding to LPS, rank order” value [4] was “binding to LPS increases in order of Hp1404-T1e, Hp1404-T1d, Hp1404-T1c, and Hp1404”. The remaining at 1 h, 200 μg/mL ([5]; reaction for 1 hour) was no less than 80%, the remaining at 2 h, 200 μg/mL ([5]; reaction for 2 hours) was 80% and the “binding to DNA” value (plasmid DNA (pRSETB)) was “did not bind to any DNA”.
In the case of `O=C(O)c1cn(C2CC2)c2cc(N3CCNCC3)c(F)cc2c1=O` [ciprofloxacin, reference compound], the wound healing ([6]; 0.1 mg/ml and 0.2 mg/ml, intracutaneous, observed everyday) was “no wound healing at all” and the “number of colonies, compared with peptide treatment” value ([6]; treated after the bacterial infection) was “higher than that obtained from the peptide treatment condition”.
